Assay [1] has as its target T1, tyrosinase (Agaricus bisporus, UniProt C7FF04). Put plainly: Tyrosinase inhibitory activity using L-DOPA as substrate. The format is biochemical, mushroom. The note with it: read-out: Inhibition Rate at 64 μM (%). As for the experimental part: Compounds c1~c29 were tested for their tyrosinase inhibitory activities according to previous reports. Each compound was dissolved in DMSO and diluted to different concentrations. Tyrosinase and L-DOPA were dissolved in PBS solution (50 mM, pH 6.8). To 140 μL of tyrosinase (final concentration: 66.7 U/mL) solution, 10 μL of compound was added and incubated for 5 min at 25 °C, followed by the addition of 50 µL of L-DOPA (final concentration: 2 mM). Then, absorbance of the mixture was read at 475 nm. The inhibitory activity of each compound was calculated using DMSO as a blank control.
Target sequence in this assay (C7FF04 2-392): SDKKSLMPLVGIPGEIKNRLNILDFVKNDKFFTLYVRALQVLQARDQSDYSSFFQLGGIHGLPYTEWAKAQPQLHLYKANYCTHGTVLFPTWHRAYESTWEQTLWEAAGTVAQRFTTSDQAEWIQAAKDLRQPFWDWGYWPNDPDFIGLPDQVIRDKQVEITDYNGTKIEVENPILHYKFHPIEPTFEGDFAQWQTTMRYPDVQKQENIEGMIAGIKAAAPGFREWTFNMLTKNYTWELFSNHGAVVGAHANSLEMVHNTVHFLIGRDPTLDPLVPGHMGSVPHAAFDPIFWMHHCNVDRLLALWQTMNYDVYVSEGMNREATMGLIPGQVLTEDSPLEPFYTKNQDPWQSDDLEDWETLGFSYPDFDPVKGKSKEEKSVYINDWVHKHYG

Assay [2] deals with T1, tyrosinase. Kind of assay: Inhibition kinetic study (enzyme and substrate kinetics, Lineweaver–Burk). In kind it is biochemical, mushroom. The conditions noted are these: c27 0~4 μM. The method, then:
The kinetics studies were carried out using the same experimental method as described above. For enzyme kinetics, the absorbance of the mixture containing different concentrations of tyrosinase (final concentration: 66.7 U/mL) and compound c27 (0, 2, 3, and 4 μM) was recorded at 475 nm, respectively. For substrate kinetics, the absorbance of the mixture containing different concentrations of L-DOPA (final concentration: 2, 4, 6 and 8 mM) and compound c27 (0, 2, 3 and 4 μM) was recorded at 475 nm, respectively.
Target sequence in this assay (C7FF04 2-392): as above

Assay [3] concerns the target T1, tyrosinase. Kind of assay: Fluorescence quenching of tyrosinase (Stern–Volmer). The format is binding, mushroom. Further details: purchased Sigma-Aldrich. As for the experimental part: An amount of 1 μL of compound c27 solution was titrated into 2 mL of tyrosinase and incubated for 5 min. […] The quenching mechanism and parameters were investigated by the Stern–Volmer equation.
Target sequence in this assay (C7FF04 1-392 limits assumed): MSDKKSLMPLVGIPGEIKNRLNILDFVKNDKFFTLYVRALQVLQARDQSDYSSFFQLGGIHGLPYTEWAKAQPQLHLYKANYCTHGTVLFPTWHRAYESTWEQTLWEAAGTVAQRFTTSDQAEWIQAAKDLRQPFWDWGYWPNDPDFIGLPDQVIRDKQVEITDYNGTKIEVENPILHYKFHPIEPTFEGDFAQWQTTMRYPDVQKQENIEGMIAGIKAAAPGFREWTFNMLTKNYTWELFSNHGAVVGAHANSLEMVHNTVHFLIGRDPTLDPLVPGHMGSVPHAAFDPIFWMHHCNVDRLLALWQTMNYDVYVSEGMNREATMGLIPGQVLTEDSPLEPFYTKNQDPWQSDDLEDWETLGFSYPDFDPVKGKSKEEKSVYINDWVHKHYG

Assay [4] concerns the target T1, tyrosinase. Kind of assay: Circular dichroism spectra, secondary structure contents of tyrosinase. The arrangement: purchased Sigma-Aldrich; species or system mushroom. The method, then: The CD spectra of tyrosinase-compound c27 mixture were measured according to previous reports. To 190 µL of tyrosinase solution (final concentration: 64.65 μM) in PBS, 10 µL of compound c27 (1.28, 2.56, and 3.84 mM) was added and incubated for 5 min. Then, the CD spectra were measured at 195~250 nm at room temperature.
On the technique in general: Circular dichroism is the unequal absorption of left and right circularly polarised light.
Target sequence in this assay (C7FF04 1-392): as the sequence (C7FF04 1-392 limits assumed) above

The target of assay [5] is T1, tyrosinase. Kind of assay: Three-dimensional fluorescence spectra of tyrosinase–compound mixture. Further details: species or system mushroom. The conditions noted are these: 3D fluorescence. The method, then:
The 3D fluorescence spectra of tyrosinase-compound c27 mixture was measured according to previous reports. To 3 mL of tyrosinase solution (final concentration: 168 μM) in PBS, 10 µL of compound c27 (2 mM) was added and incubated for 5 min. Then, the 3D fluorescence spectra analyses were conducted in room temperature. The excitation and emission wavelengths were 200–600 nm and the slit width was 2.5 nm.
Target sequence in this assay (C7FF04 2-392): as the sequence (C7FF04 2-392) above

The mark [6] stands for this setting: compound concentration 64 μM, L-DOPA substrate.

Read-outs that look alike come from different tables or passages of the source.

By inhibition is commonly meant the percentage by which the read-out fell short of the control. In the case of `C=CCc1ccc(OC(=O)/C=C/c2ccc(O)cc2)c(OC)c1` [c15, 4-allyl-2-methoxyphenyl (E)-3-(4-hydroxyphenyl)acrylate], the inhibition at 64 µM at tyrosinase [1] (setting [6]) is 76.1%.

Consider `C=CCc1ccc(OC(=O)/C=C/c2cccc([N+](=O)[O-])c2)c(OC)c1` [c17, 4-allyl-2-methoxyphenyl (E)-3-(3-nitrophenyl)acrylate], for which the inhibition at 64 µM at tyrosinase [1] (setting [6]) was 9 ± 0.8%.

Take `C=CCc1ccc(OC(=O)/C=C/c2ccccc2F)c(OC)c1` [c8, 4-allyl-2-methoxyphenyl (E)-3-(2-fluorophenyl)acrylate]: at tyrosinase [1] (setting [6]), the inhibition at 64 µM turned out to be 17 ± 3%.

For `C=CCc1ccc(OC(=O)/C=C/c2cccc(F)c2)c(OC)c1` [c9, 4-allyl-2-methoxyphenyl (E)-3-(3-fluorophenyl)acrylate], the inhibition at 64 µM at tyrosinase [1] (setting [6]) was 17 ± 3%.

Consider `C=CCc1ccc(OC(=O)/C=C/c2ccc(Cl)c(F)c2)c(OC)c1` [c28, 4-allyl-2-methoxyphenyl (E)-3-(4-chloro-3-fluorophenyl)acrylate], for which, on tyrosinase [1] (setting [6]), the inhibition at 64 µM came to 19 ± 0.2%.

As to `C=CCc1ccc(OC(=O)/C=C/c2cccc(Cl)c2)c(OC)c1` [c6, 4-allyl-2-methoxyphenyl (E)-3-(3-chlorophenyl)acrylate], the inhibition at 64 µM on tyrosinase [1] (setting [6]) was 17 ± 2%.

With `C=CCc1ccc(OC(=O)/C=C/c2ccccc2Cl)c(OC)c1` [c5, 4-allyl-2-methoxyphenyl (E)-3-(2-chlorophenyl)acrylate], the inhibition at 64 µM at tyrosinase [1] (setting [6]) worked out at 29 ± 3%.

As for `C=CCc1ccc(OC(=O)/C=C/c2ccc(N(C)C)cc2)c(OC)c1` [c25, 4-allyl-2-methoxyphenyl (E)-3-(4-(dimethylamino)phenyl)acrylate], the inhibition at 64 µM at tyrosinase [1] (setting [6]) is 26 ± 1%.

For the compound `C=CCc1ccc(OC(=O)/C=C/c2ccccc2Br)c(OC)c1` [c11, 4-allyl-2-methoxyphenyl (E)-3-(2-bromophenyl)acrylate], the inhibition at 64 µM on tyrosinase [1] (setting [6]) came to 10 ± 0.4%.

`C=CCc1ccc(OC(=O)/C=C/c2ccc(C)cc2)c(OC)c1` [c4, 4-allyl-2-methoxyphenyl (E)-3-(p-tolyl)acrylate]: the inhibition at 64 µM on tyrosinase [1] (setting [6]) was found to be 15 ± 1%.

On to `C=CCc1ccc(OC(=O)/C=C/c2cccc(Br)c2)c(OC)c1` [c12, 4-allyl-2-methoxyphenyl (E)-3-(3-bromophenyl)acrylate], for which the inhibition at 64 µM at tyrosinase [1] (setting [6]) was 3 ± 0.8%.

With `C=CCc1ccc(OC(=O)/C=C/c2cccc(OC)c2)c(OC)c1` [c20, 4-allyl-2-methoxyphenyl (E)-3-(3-methoxyphenyl)acrylate], the inhibition at 64 µM at tyrosinase [1] (setting [6]) is 3 ± 0.1%.

Consider `C=CCc1ccc(OC(=O)/C=C/c2ccc(Br)cc2)c(OC)c1` [c13, 4-allyl-2-methoxyphenyl (E)-3-(4-bromophenyl)acrylate], for which, on tyrosinase [1] (setting [6]), the inhibition at 64 µM was 13 ± 1%.

With `C=CCc1ccc(OC(=O)/C=C/c2ccc(OC)cc2)c(OC)c1` [c21, 4-allyl-2-methoxyphenyl (E)-3-(4-methoxyphenyl)acrylate], the inhibition at 64 µM at tyrosinase [1] (setting [6]) stood at 7 ± 0.9%.

For `C=CCc1ccc(OC(=O)/C=C/c2ccc(O)c(OC)c2)c(OC)c1` [c26, 4-allyl-2-methoxyphenyl (E)-3-(4-hydroxy-3-methoxyphenyl)acrylate], the inhibition at 64 µM on tyrosinase [1] (setting [6]) was 47 ± 1%.

With `C=CCc1ccc(OC(=O)/C=C/c2cccc(C)c2)c(OC)c1` [c3, 4-allyl-2-methoxyphenyl (E)-3-(m-tolyl)acrylate], the inhibition at 64 µM on tyrosinase [1] (setting [6]) amounted to 39 ± 3%.

As to `C=CCc1ccc(OC(=O)/C=C/c2ccc(F)cc2)c(OC)c1` [c10, 4-allyl-2-methoxyphenyl (E)-3-(4-fluorophenyl)acrylate], the inhibition at 64 µM at tyrosinase [1] (setting [6]) worked out at 17 ± 1%.

In the case of `C=CCc1ccc(OC(=O)/C=C/c2ccccc2C)c(OC)c1` [c2, 4-allyl-2-methoxyphenyl (E)-3-(o-tolyl)acrylate], the inhibition at 64 µM on tyrosinase [1] (setting [6]) came to 12 ± 0.3%.

Take `C=CCc1ccc(OC(=O)/C=C/c2cccc(C(F)(F)F)c2)c(OC)c1` [c23, 4-allyl-2-methoxyphenyl (E)-3-(3-(trifluoromethyl)phenyl)acrylate]: at tyrosinase [1] (setting [6]), the inhibition at 64 µM came out at 5 ± 0.2%.

In the case of `C=CCc1ccc(OC(=O)/C=C/c2ccc([N+](=O)[O-])cc2)c(OC)c1` [c18, 4-allyl-2-methoxyphenyl (E)-3-(4-nitrophenyl)acrylate], the inhibition at 64 µM at tyrosinase [1] (setting [6]) is 14 ± 1%.

In the case of `C=CCc1ccc(OC(=O)/C=C/c2ccccc2C(F)(F)F)c(OC)c1` [c22, 4-allyl-2-methoxyphenyl (E)-3-(2-(trifluoromethyl)phenyl)acrylate], the inhibition at 64 µM at tyrosinase [1] (setting [6]) came to 6 ± 0.5%.

As for `C=CCc1ccc(OC(=O)/C=C/c2ccc(O)c(O)c2)c(OC)c1` [c27, 4-allyl-2-methoxyphenyl (E)-3-(3,4-dihydroxyphenyl)acrylate], the inhibition type entry against tyrosinase [2] (Lineweaver–Burk plots) is reported as “mixed-type”. The reversibility of inhibition result at tyrosinase [2] (ν versus [E] plots) is on record as “reversible”. At tyrosinase [1] (setting [6]), the inhibition at 64 µM was 81.5%. On tyrosinase [3], the “number of binding sites (in words)” value was “one” and the quenching mechanism entry was “static”. Moreover, at tyrosinase [3] (304 K), the “KSV (Stern–Volmer quenching constant)” value is 47700 L/mol, the “Kq (quenching rate constant)” value was 4.77e+12 L/mol and the “n (number of binding sites)” value was 0.59. Further, at tyrosinase [3] (307 K), the “KSV (Stern–Volmer quenching constant)” value came out at 43200 L/mol, the “Kq (quenching rate constant)” value worked out at 4.32e+12 L/mol and the “n (number of binding sites)” value turned out to be 0.86. Also, at tyrosinase [3] (310 K), the “KSV (Stern–Volmer quenching constant)” value worked out at 42900 L/mol, the “Kq (quenching rate constant)” value came to 4.29e+12 L/mol and the “n (number of binding sites)” value amounted to 0.99. Moreover, on tyrosinase [4] ([Tyrosinase]:[c27] 1:1), the “Random Coil (%)” value was 28.23%, the “α-Helix (%)” value came to 7.12%, the “β-Sheet (%)” value is given as 49.00% and the “β-Turn (%)” value is 17.63%. At tyrosinase [4] ([Tyrosinase]:[c27] 1:2), the “Random Coil (%)” value was 28.12%, the “α-Helix (%)” value was found to be 9.56%, the “β-Sheet (%)” value worked out at 49.23% and the “β-Turn (%)” value is reported as 18.37%. Also, at tyrosinase [4] ([Tyrosinase]:[c27] 1:3), the “Random Coil (%)” value was 27.94%, the “α-Helix (%)” value was 9.85%, the “β-Sheet (%)” value was determined as 49.27% and the “β-Turn (%)” value came to 18.55%. Moreover, the “reduction of intensity of peak 1 (λex/λem = 280 nm/340 nm)” value at tyrosinase [5] (Tyr and Trp residues) worked out at 21.47%. For the same compound, at tyrosinase [5] (polypeptide strand transition), the “reduction of intensity of peak 2 (λex/λem = 230 nm/335 nm)” value was found to be 32.71%.

For `C=CCc1ccc(OC(=O)/C=C/c2ccc(C(F)(F)F)cc2)c(OC)c1` [c24, 4-allyl-2-methoxyphenyl (E)-3-(4-(trifluoromethyl)phenyl)acrylate], on tyrosinase [1] (setting [6]), the inhibition at 64 µM came out at 2 ± 0.1%.

Take `C=CCc1ccc(OC(=O)/C=C/c2ccccc2OC)c(OC)c1` [c19, 4-allyl-2-methoxyphenyl (E)-3-(2-methoxyphenyl)acrylate]: on tyrosinase [1] (setting [6]), the inhibition at 64 µM came out at 3 ± 0.2%.

Turning to `C=CCc1ccc(OC(=O)/C=C/c2cccc(O)c2)c(OC)c1` [c14, 4-allyl-2-methoxyphenyl (E)-3-(3-hydroxyphenyl)acrylate], the inhibition at 64 µM at tyrosinase [1] (setting [6]) is 67.6%.

With `C=CCc1ccc(OC(=O)/C=C/c2ccc3c(c2)OCO3)c(OC)c1` [c29, 4-allyl-2-methoxyphenyl (E)-3-(benzo[d][1,3]dioxol-5-yl)acrylate], on tyrosinase [1] (setting [6]), the inhibition at 64 µM came out at 4 ± 1%.

In the case of `C=CCc1ccc(OC(=O)C=Cc2ccccc2)c(OC)c1` [c1, 4-allyl-2-methoxyphenyl cinnamate], the inhibition at 64 µM at tyrosinase [1] (setting [6]) was found to be 12 ± 1%.

For `C=CCc1ccc(OC(=O)/C=C/c2ccccc2[N+](=O)[O-])c(OC)c1` [c16, 4-allyl-2-methoxyphenyl (E)-3-(2-nitrophenyl)acrylate], at tyrosinase [1] (setting [6]), the inhibition at 64 µM turned out to be 5 ± 0.1%.

As for `C=CCc1ccc(OC(=O)/C=C/c2ccc(Cl)cc2)c(OC)c1` [c7, 4-allyl-2-methoxyphenyl (E)-3-(4-chlorophenyl)acrylate], the inhibition at 64 µM on tyrosinase [1] was 24 ± 1%.

(Values after PMC10460039 (Molecules, 2023).)
